# Measured values published in patent US5008267A, “Pyrimidinedione compounds, method of producing the same and antiarrythmic agents containing the same” (Mitsui Toatsu Chemicals, Incorporated, priority 1988, dated 1991).
# Where a name gives a salt, the structure may show the parent alone. Read-outs that look alike come from different tables or passages of the source.
# What was measured:
# [1] = system: Purkinje fiber of the right ventricular free wall (myocardial action potential); test: Influence on myocardial action potential duration time (APD75), isolated right ventricular free wall, microelectrode in Purkinje fiber; assay type: cell-based, dog; conditions: Canis lupus familiaris, 20 min
# [2] = system: ventricular muscle refractory period; test: Influence on ventricular muscle refractory period (ERP); assay type: in vivo, mongrel dog; conditions: Canis lupus familiaris, iv, i.v., (W-Y)/Y×100, read-out: ERP (%; extensibility of refractory period)
# Protocol: (2) Influence on ventricular muscle refractory period Refractory periods were measured in the following manner before and after each of the compounds and d-sotalol shown in Table 2 was separately administered to a vein or a duodenum, and ERP (%; extensibility of refractory period) was calculated from the measured values: ERP (%)=(W-Y)/Y×100 W: Refractory period after administration Y: Refractory period before administration To a mongrel adult dog, 30 mg/kg of pentobarbital was administered intravenously, and after being anesthetized, a pair of silver-silver chloride electrodes separated by 3 mm was sewn on an opened right ventricule, and electrical stimulation was given at an interval of 400 msec at a duration time of 4 msec under a current twice as much as the threshold. Afterward, a small amount of alcohol was injected into a sinus artery in order to extinguish a pacemaker activity, and the ventricular refractory period (ERP) was measured under ventricule pacing. That is, each 1 train comprised 10 stimulations having intervals of 400 msec, and an interval between the trains was usually 400 msec. However, this interval was shortened 10 msec by 10 msec at the time of the refractory period measurement, and an interval between the trains at the time when reaction to the first stimulation of the train disappeared was regarded as the refractory period. In this case, the electrical stimulation was fed in accordance with a program by a heart stimulation device (Diamedical Co., Ltd.; DHM-226-3).
# [3] = 1.0 μg/ml, 20 minutes' incubation, (B-A)/A×100, read-out: APD75 (%)
# [4] = 3.0 μg/ml, 20 minutes' incubation, (B-A)/A×100, read-out: APD75 (%)
# [5] = 10.0 μg/ml, 20 minutes' incubation, (B-A)/A×100, read-out: APD75 (%)
Compound,"activation at 1 µg/mL [1, 3] [%]","activation at 3 µg/mL [1, 4] [%]",change in vivo at 0.1 mg/kg [2] [%],change in vivo at 0.3 mg/kg [2] [%],change in vivo at 1 mg/kg [2] [%],"activation at 10 µg/mL [1, 5] [%]",change in vivo at 3 mg/kg [2] [%],activation at 1 µg/mL ([1]; read-out: APD75 (%)) [%],activation at 3 µg/mL ([1]; read-out: APD75 (%)) [%],activation at 10 µg/mL ([1]; read-out: APD75 (%)) [%],"activation at 0.3 µg/mL ([1]; 0.3 μg/ml, 20 minutes' incubation, (B-A)/A×100) [%]"
"Cn1c(N2CCN(CCCOc3ccc([N+](=O)[O-])cc3N)CC2)cc(=O)n(C)c1=O [Compound 153, 1,3-dimethyl-6-{4-[3-(2-amino-4-nitrophenyloxy)propyl]piperazin-1-yl}-2,4(1H,3H)-pyrimidinedione oxalate]",20,25,6.1,9.1,18.3,–,–,–,–,–,–
"Cn1c(NCCNC2CCN(c3ccc([N+](=O)[O-])cc3)CC2)cc(=O)n(C)c1=O [Compound 61, 1,3-dimethyl-6-{2-[[1-(4-nitrophenyl)piperidin-4-yl]amino]ethylamino}-2,4(1H,3H)-pyrimidinedione oxalate]",–,–,8.3,8.3,8.3,–,–,–,–,–,–
"Cn1c(N2CCN(CC(=O)Nc3ccc([N+](=O)[O-])cc3)CC2)cc(=O)n(C)c1=O [Compound 47, 1,3-dimethyl-6-{4-[N-(4-nitrophenyl)carbamoylmethyl]piperazin-1-yl}-2,4(1H,3H)pyrimidinedione oxalate]",5,11,–,–,–,16,–,–,–,–,–
"Cn1c(N2CCN(CCCNc3ccc([N+](=O)[O-])cc3C(=O)c3ccccc3)CC2)cc(=O)n(C)c1=O [Compound 111, 1,3-dimethyl-6-{4-[3-(2-benzoyl-4-nitroanilino)propyl]piperazin-1-yl}-2,4(1H,3H)-pyrimidinedione oxalate]",13,21,7.7,10.9,14,–,21,–,–,–,–
"Cn1c(N2CCN(CCCOc3ccc([N+](=O)[O-])cc3C(=O)c3ccccc3O)CC2)cc(=O)n(C)c1=O [Compound 104, 1,3-dimethyl-6-{4-<3-[2-(2-hydroxybenzoyl)-4-nitrophenoxy]propyl>piperazin-1-yl}-2,4(1H,3H)-pyrimidinedione oxalate]",–,16,–,–,–,25,–,–,–,–,–
"Cn1c(NCCN(CCO)CCCc2ccc([N+](=O)[O-])cc2)c([N+](=O)[O-])c(=O)n(C)c1=O [Compound 180, 1,3-dimethyl-6-{2-[N-(2-hydroxethyl)-3-(4-nitrophenyl)propylamino]ethylamino}-5-nitro-2,4(1H,3H)-pyrimidinedione hydrochloride]",–,–,–,–,–,–,–,11,20,26,–
"Cn1c(N2CCN(CCCOc3cccc([N+](=O)[O-])c3)CC2)cc(=O)n(C)c1=O [Compound 38, 1,3-dimethyl-6-{4-[3-(3-nitrophenoxy)propyl]piperazin-1-yl}-2,4(1H,3H)-pyrimidinedione hydrochloride]",15,34,0,0,7,–,14,–,–,–,–
"Cn1c(N2CCN(CCc3ccc(C(=O)c4ccccc4)cc3[N+](=O)[O-])CC2)cc(=O)n(C)c1=O [Compound 137, 1,3-dimethyl-6-{4-[2-(4-benzoyl-2-nitrophenyl)ethyl]piperazin-1-yl}-2,4(1H,3H)-pyrimidinedione oxalate]",32,51,6.3,6.3,12.5,–,18.8,–,–,–,–
"CN(CCCN1CCN(c2cc(=O)n(C)c(=O)n2C)CC1)c1ccc([N+](=O)[O-])cc1 [Compound 69, 1,3-dimethyl-6-{4-[3-(N-methyl-4-nitroanilino)propyl]piperazin-1-yl}-2,4(1H,3H)-pyrimidinedione oxalate]",–,11,6.7,6.7,13.3,13,20,–,–,–,–
"Cn1c(N2CCN(CCc3ccc([N+](=O)[O-])cc3)CC2)cc(=O)n(C)c1=O [Compound 14, 1,3-dimethyl-6-{4-[2-(4-nitrophenyl)ethyl]piperazin-1-yl}-2,4(1H,3H)-pyrimidinedione hydrochloride]",43,–,14,33.5,–,–,–,–,–,–,18
"Cn1c(N2CCN(CCCOc3ccc([N+](=O)[O-])cc3O)CC2)cc(=O)n(C)c1=O [Compound 162, 1,3-dimethyl-6-{4-[3-(2-hydroxy-4-nitrophenyloxy)propyl]piperazin-1-yl}-2,4(1H,3H)-pyrimidinedione hydrochloride]",19,41,0,0,0,60,0,–,–,–,–
"Cn1c(N2CCN(CCCc3ccc([N+](=O)[O-])cc3)CC2)cc(=O)n(C)c1=O [Compound 33, 1,3-dimethyl-6-{4-[3-(4-nitrophenyl)propyl]piperazin-1-yl)-2,4(1H,3H)-pyrimidinedione oxalate]",17,22,14.3,14.3,17.9,31,21.4,–,–,–,–
"Cn1c(NCCNCCc2ccc([N+](=O)[O-])cc2)cc(=O)n(C)c1=O [Compound 16, 1,3-dimethyl-6-{2-[2-(4-nitrophenyl)ethylamino]ethylamino}-2,4(1H,3H)-pyrimidinedione oxalate]",–,22,6.7,13.3,13.3,–,–,–,–,–,–
"Cn1c(N2CCN(CCCc3ccc(C(=O)c4ccccc4)cc3[N+](=O)[O-])CC2)cc(=O)n(C)c1=O [Compound 136, 1,3-dimethyl-6-{4-[3-(4-benzoyl-2-nitrophenyl)propyl]piperazin-1-yl}-2,4(1H,3H)-pyrimidinedione hydrochloride]",11,14,–,7.7,15.4,–,15.4,–,–,–,–
Cn1c(N2CCN(CCOc3ccc([N+](=O)[O-])cc3C(=O)c3ccccc3)CC2)cc(=O)n(C)c1=O [Compound 99],9,22,9.8,14.7,23.1,29,–,–,–,–,–
"Cn1c(NCCNCc2ccc([N+](=O)[O-])cc2)cc(=O)n(C)c1=O [Compound 15, 1,3-dimethyl-6-[2-(4-nitrobenzylamino)ethylamino]-2,4(1H,3H)-pyrimidinedione oxalate]",–,6,6.3,12.5,12.5,16,18.8,–,–,–,–
CC(=O)c1ccc(OCCN2CCN(c3cc(=O)n(C)c(=O)n3C)CC2)c([N+](=O)[O-])c1 [Compound 102],7,20,–,–,–,–,–,–,–,–,–
Cn1c(N2CCN(CCCNc3ccc([N+](=O)[O-])cc3)CC2)cc(=O)n(C)c1=O [Compound 58],10,18,–,–,–,28,–,–,–,–,–
"COCCN(CCCc1ccc([N+](=O)[O-])cc1)CCNc1cc(=O)n(C)c(=O)n1C [Compound 171, 1,3-dimethyl-6-{2-[N-(2-methoxyethyl)-3-(4-nitrophenyl)propylamino]ethylamino}-2,4(1H,3H)-pyrimidinedione oxalate]",19,23,–,–,–,38,–,–,–,–,–
"CC(=O)c1cc([N+](=O)[O-])ccc1NCCCN1CCN(c2cc(=O)n(C)c(=O)n2C)CC1 [Compound 120, 1,3-dimethyl-6-{4-[3-(2-acetyl-4-nitroanilino)propyl]piperazin-1-yl}-2,4(1H,3H)-pyrimidinedione oxalate]",16,27,–,–,–,29,–,–,–,–,–
"Cn1c(N2CCN(c3ccc([N+](=O)[O-])cc3)CC2)cc(=O)n(C)c1=O [Compound 1, 1,3-dimethyl-6-[4-(4-nitrophenyl)piperazin-1-yl]-2,4(1H,3H)-pyrimidinedione]",–,–,3.6,3.6,10.3,–,–,–,–,–,–
"CCN(CCCNc1ccc([N+](=O)[O-])cc1)CCNc1cc(=O)n(C)c(=O)n1C [Compound 73, 1,3-dimethyl-6-{2-[N-ethyl-3-(4-nitroanilino)propylamino]ethylamino}-2,4(1H,3H)-pyrimidinedione hydrochloride]",2,12,–,–,–,18,–,–,–,–,–
